According to BindingDB's records for doi:10.1021/jm060166w (University of Tours, 2006):

Target: 5-hydroxytryptamine receptor 1A (Sus scrofa)
Test: Displacement of [3H]8-OH-DPAT from 5HT1A receptor in porcine cortical membrane

SMILES: Fc1ccc(N2CCN(Cc3cn4ccccc4n3)CC2)cc1 [2-[4-(4-fluorophenyl)piperazin-1-ylmethyl]imidazo[1,2-a]pyridine]
- Ki: 3.6 µM
